Assay results reported in patent publication US20100316590A1, “COMPOSITIONS AND METHODS RELATED TO POLOXAMER COPOLYMER MEMBRANE SEALANT” (THE BOARD OF REGENTS OF THE UNIVERSITY OF TEXAS SYSTEM, priority 2009, published 2010).

Test system: SH-SY5Y human neuroblastoma cells

Substance | reduction in cell viability of cells treated with P188 alone compared to untreated controls | toxicity of poloxamer on its own to the cells compared to untreated controls
poloxamer 188 [Poloxamer P188] | not statistically significant | –
poloxamer 407 [Poloxamer P407] | – | non-toxic
